# Source: ChEMBL document CHEMBL1201862, “PubChem BioAssay data set” (2004)
# Active and inactive are the calls of the source.
# Assays:
# [1] = biological target: E3 ubiquitin-protein ligase Mdm2 (Homo sapiens, UniProt Q00987); test: enhancers of MDM2-luciferase reporter signal, concentration-effect titration, project on inhibitors of MDM2 ubiquitin ligase, cellular assay, luminescent readout, 384-well plate format (AID 1394); assay type: functional;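 note: MDM2 E3 inhibitors raise luminescence so EC50 is for signal enhancement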
# [2] = biological target: Bifunctional protein GlmU (Mycobacterium tuberculosis, UniProt P9WMN3); test: Inhibitors of Mycobacterial Glucosamine-1-phosphate acetyl transferase (GlmU). Secondary screen.; set-up: species or system Mycobacterium tuberculosis H37Rv
# [3] = biological target: T1, Protein skinhead-1 (Caenorhabditis elegans, UniProt P34707); assay type: functional
# T1 sequence (P34707 whole entry): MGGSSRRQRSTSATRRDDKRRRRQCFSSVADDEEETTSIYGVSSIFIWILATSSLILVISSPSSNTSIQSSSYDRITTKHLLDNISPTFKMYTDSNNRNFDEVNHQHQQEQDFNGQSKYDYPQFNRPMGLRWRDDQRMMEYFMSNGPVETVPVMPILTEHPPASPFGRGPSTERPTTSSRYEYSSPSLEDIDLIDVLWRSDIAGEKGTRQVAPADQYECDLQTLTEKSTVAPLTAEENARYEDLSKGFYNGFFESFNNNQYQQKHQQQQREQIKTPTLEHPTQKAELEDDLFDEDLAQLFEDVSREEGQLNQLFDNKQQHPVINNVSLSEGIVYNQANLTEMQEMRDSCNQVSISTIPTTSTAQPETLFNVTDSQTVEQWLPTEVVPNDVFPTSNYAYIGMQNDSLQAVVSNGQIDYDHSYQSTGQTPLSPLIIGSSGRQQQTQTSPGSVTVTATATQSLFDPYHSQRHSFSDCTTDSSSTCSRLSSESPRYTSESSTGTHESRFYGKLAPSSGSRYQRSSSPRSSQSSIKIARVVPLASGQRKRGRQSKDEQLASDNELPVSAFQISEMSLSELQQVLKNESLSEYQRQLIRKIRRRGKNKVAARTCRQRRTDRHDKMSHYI
# [4] = biological target: G-protein coupled receptor 183 (Homo sapiens, UniProt P32249); test: SAR confirmation of small molecule antagonists of the EBI2 receptor via a luminescent beta-arrestin assa.; assay type: functional
# [5] = P. falciparum late gametocyte killing, dose response, luminescence (AID 1117278); assay type: functional, cell-based;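 note: gametocytes exposed to compound for 24 hours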
# [6] = Jurkat T cell cytotoxicity, dose response, cytotoxicity control for P. falciparum gametocyte viability project, luminescence (AID 1117277); assay type: functional, cell-based;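 note: potency reflects loss of cellular ATP meaning fewer viable cells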
# [7] = biological target: Luciferin 4-monooxygenase (Photinus pyralis, UniProt P08659); test: firefly luciferase enzyme inhibitors, dose response, biochemical, luminescence (AID 1891)
# [8] = Luminescence Cell-Based Dose Confirmation HTS to Identify Inhibitors of Platelet Dense Granule Release. [Related pubchem assays: 1663 (Primary HTS), 1678 (Summary of Project)]; assay type: functional
# [9] = Fluorescence Cell-Based Dose Response to Identify Inhibitors of Thrombin Receptor-Activating Peptide SFLLRN-Mediated P-Selectin Induction on Platelets. [Related pubchem assays: 1663 (Primary HTS), 1889 (retest at dose ), 1891 (counterscreen), 1678 (Project Summary)]; assay type: functional
# [10] = biological target: Peroxisome proliferator-activated receptor gamma/Nuclear receptor corepressor 2 (Homo sapiens, UniProt P37231+Q9Y618); test: Counterscreen for NR2E3 inverse agonists: TR-FRET-based biochemical high throughput dose response assay to identify inverse agonists of the interaction between peroxisome proliferator-activated receptor gamma (PPARg) and nuclear receptor co-repressor 2 (NCOR2).; assay type: functional
# [11] = biological target: Photoreceptor-specific nuclear receptor (Homo sapiens, UniProt Q9Y5X4); test: NR2E3 inverse agonists, dose response, biochemical, TR-FRET (AID 463256); assay type: functional
# [12] = biological target: Phospholipase D2 (Homo sapiens, UniProt O14939); test: PLD2 Cellular Concentration Response Study.; assay type: functional
# [13] = biological target: Phospholipase D1 (Homo sapiens, UniProt Q13393); test: PLD1 Cellular Concentration Response Study.; assay type: functional
# [14] = biological target: T2, Tyrosine-protein phosphatase non-receptor type 7 (Homo sapiens, UniProt P35236); test: inhibitors of human HePTP phosphatase, […], biochemical, absorbance, leukemia target (AID 521); assay type: functional
# T2 sequence (P35236 whole entry): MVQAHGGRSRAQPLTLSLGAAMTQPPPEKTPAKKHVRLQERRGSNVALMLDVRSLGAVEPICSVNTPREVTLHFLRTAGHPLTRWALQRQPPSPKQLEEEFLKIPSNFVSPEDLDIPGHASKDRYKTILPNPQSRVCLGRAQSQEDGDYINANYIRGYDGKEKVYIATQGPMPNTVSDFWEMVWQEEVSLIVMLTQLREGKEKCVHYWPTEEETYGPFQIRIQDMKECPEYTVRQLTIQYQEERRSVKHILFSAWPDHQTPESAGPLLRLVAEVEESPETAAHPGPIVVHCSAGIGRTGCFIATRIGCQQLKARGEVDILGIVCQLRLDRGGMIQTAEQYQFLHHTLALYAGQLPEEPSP
# Luciferin 4-monooxygenase, sequence (P08659 whole entry): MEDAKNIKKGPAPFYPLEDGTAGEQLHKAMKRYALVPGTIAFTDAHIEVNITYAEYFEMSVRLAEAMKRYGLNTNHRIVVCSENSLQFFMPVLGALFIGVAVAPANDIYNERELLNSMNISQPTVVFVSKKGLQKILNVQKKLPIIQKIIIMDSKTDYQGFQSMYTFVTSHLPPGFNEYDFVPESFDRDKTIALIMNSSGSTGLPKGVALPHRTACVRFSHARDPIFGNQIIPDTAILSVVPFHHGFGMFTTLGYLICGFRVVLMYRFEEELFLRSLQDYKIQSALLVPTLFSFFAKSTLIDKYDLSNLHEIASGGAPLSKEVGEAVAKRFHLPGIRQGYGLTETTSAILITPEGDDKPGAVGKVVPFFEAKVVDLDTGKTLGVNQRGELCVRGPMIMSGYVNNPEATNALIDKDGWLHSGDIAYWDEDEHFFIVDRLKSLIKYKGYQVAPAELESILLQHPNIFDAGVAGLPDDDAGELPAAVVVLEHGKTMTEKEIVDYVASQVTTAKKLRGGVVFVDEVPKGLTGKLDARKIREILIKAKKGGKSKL
# G-protein coupled receptor 183, sequence (P32249 whole entry): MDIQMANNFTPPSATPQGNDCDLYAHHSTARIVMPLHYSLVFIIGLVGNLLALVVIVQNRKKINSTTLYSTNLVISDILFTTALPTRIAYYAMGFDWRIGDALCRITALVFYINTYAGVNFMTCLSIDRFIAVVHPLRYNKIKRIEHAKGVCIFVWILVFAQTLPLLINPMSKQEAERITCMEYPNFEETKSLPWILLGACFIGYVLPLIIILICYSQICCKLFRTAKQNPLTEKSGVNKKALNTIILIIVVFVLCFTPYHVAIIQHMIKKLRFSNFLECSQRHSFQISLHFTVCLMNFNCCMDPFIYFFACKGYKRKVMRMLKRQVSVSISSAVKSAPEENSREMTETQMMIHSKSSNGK
# Peroxisome proliferator-activated receptor gamma/Nuclear receptor corepressor 2, sequence (P37231 whole entry): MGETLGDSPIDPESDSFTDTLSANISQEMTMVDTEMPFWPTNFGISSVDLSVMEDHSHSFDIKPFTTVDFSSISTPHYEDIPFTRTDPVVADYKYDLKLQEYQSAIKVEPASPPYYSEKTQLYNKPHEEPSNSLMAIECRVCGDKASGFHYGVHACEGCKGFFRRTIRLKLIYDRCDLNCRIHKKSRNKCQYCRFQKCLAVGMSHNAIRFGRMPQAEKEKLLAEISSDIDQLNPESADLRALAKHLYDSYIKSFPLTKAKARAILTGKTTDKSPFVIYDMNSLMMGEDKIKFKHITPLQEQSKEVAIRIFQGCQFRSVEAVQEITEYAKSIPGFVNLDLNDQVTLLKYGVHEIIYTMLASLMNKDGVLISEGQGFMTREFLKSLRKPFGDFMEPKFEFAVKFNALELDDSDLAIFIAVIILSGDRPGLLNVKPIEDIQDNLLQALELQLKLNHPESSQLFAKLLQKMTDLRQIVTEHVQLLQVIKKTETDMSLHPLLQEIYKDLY
# Peroxisome proliferator-activated receptor gamma/Nuclear receptor corepressor 2, sequence (Q9Y618 whole entry): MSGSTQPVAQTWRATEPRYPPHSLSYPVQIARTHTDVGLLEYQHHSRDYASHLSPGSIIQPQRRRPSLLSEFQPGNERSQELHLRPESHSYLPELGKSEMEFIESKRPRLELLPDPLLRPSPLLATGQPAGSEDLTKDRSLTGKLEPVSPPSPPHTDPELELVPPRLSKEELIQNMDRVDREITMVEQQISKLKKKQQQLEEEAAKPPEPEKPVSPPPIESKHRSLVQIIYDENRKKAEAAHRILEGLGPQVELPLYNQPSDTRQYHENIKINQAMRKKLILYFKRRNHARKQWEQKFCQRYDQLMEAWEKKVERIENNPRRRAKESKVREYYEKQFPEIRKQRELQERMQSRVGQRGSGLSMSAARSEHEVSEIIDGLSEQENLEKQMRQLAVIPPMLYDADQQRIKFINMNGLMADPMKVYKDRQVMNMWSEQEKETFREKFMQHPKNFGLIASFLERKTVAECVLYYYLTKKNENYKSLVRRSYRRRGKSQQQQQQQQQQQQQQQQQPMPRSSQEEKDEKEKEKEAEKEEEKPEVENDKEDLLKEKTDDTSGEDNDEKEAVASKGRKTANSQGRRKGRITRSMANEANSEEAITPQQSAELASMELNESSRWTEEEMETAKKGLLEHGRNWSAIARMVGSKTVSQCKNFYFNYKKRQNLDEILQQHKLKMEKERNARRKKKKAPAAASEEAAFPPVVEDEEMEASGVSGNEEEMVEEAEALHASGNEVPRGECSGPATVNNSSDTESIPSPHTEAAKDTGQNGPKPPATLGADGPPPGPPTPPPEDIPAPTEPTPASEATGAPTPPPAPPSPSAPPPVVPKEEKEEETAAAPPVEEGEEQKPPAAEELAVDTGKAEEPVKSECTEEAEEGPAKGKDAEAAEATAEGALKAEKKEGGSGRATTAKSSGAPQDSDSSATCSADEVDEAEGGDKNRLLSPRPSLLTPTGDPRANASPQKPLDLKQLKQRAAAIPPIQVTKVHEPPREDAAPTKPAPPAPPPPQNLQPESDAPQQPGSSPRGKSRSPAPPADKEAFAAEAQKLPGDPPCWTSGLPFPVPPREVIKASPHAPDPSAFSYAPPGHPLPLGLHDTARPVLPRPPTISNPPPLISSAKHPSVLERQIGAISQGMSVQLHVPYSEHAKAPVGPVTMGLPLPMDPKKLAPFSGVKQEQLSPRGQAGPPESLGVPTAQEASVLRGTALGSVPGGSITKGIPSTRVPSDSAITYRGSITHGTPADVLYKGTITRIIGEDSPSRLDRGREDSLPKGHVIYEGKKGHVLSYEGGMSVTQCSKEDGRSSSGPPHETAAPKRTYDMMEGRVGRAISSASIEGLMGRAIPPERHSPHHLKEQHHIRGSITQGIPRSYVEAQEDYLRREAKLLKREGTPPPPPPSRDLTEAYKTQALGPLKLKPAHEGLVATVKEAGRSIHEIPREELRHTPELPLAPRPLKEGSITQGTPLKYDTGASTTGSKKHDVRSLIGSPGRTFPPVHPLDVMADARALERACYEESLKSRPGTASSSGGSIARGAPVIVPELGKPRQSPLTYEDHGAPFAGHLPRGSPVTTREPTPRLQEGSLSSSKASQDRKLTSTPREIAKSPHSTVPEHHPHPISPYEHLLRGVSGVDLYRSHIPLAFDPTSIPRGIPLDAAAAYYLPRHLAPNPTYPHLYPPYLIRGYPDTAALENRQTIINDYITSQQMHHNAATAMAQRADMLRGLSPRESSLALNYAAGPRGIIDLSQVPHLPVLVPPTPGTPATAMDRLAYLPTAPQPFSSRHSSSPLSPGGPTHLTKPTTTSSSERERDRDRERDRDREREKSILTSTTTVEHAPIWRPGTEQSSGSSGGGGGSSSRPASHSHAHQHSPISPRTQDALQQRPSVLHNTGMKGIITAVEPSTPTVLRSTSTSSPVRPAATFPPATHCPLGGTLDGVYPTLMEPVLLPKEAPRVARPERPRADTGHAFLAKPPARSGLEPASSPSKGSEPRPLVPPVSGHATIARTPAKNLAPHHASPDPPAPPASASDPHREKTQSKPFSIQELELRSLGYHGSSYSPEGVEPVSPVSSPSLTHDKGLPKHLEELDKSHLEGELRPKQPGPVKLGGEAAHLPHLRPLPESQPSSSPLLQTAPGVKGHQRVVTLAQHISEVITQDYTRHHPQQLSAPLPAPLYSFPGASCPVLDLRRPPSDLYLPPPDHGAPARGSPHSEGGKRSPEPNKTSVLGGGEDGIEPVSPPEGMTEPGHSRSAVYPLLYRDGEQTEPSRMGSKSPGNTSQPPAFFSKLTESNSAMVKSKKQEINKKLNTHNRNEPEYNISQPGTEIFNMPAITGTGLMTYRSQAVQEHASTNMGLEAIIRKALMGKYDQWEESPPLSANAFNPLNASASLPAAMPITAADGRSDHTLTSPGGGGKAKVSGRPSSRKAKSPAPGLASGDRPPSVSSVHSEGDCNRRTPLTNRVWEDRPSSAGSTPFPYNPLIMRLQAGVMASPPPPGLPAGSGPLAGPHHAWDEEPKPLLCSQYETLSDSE
# Phospholipase D1, sequence (Q13393 whole entry): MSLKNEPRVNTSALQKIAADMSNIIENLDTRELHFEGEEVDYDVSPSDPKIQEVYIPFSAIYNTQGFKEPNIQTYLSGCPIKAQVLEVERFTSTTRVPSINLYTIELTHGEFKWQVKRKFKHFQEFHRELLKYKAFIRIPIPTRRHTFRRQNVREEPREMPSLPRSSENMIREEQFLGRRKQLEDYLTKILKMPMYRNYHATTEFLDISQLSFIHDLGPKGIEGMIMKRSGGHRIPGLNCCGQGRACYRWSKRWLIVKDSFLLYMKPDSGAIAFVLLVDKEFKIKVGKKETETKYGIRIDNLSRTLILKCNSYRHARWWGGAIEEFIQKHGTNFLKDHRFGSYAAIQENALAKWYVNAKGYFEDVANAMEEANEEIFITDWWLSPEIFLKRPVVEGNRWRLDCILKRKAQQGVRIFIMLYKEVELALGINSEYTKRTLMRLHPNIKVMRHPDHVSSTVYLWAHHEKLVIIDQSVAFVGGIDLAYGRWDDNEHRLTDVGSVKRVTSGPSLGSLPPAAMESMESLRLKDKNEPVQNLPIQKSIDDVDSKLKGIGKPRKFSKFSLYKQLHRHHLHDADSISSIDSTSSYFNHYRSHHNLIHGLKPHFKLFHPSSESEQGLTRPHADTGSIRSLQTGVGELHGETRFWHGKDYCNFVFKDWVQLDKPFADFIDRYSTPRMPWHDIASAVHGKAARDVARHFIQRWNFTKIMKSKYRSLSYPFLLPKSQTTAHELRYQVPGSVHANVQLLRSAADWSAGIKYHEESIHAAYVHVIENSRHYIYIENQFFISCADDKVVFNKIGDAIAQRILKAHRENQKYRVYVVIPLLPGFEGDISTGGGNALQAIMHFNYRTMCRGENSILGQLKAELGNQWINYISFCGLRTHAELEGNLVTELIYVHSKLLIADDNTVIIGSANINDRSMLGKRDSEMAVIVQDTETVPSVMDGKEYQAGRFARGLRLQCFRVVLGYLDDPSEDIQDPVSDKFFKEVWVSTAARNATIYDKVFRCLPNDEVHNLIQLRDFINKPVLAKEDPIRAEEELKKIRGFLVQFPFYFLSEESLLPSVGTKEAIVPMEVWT
structure (smiles),measurement,setting,value
CCN(CC)c1ccc(/C=C2/C(=O)c3ccc(C(=O)O)cc3C2=O)cc1,EC50,[1],0.07 µM (active)
same,IC50,[2],34.3 µM (active)
same,IC50,[3],20.9 µM (active)
O=C(/C=C/c1ccccc1)N1CCN(Cc2ccc(Cl)cc2)CC1,IC50,[4],0.0984 µM (active)
C=CCn1c(SCC(=O)NCc2ccc3c(c2)OCO3)nc2scc(-c3ccc(F)cc3)c2c1=O,IC50,[5],> 109 µM (inactive)
same,IC50,[6],68.6 µM (inactive)
COc1cc2c(cc1OC)-c1cc(N3CCCCCC3)nc(=O)n1CC2,EC50,[7],> 112 µM (not active)
same,EC50,[8],1.66 µM (active)
same,EC50,[9],< 0.3 µM (active)
Cn1c(SCC(=O)Nc2cccc(F)c2)nnc1-c1cc2ccccc2o1,IC50,[10],1.67 µM (active)
same,IC50,[11],2.61 µM (active)
O=C(NCCN1CCC2(CC1)C(=O)NCN2Cc1ccncc1)c1ccc2ccccc2c1,IC50,[12],0.85 µM (active)
same,IC50,[13],20 µM (active)
Cc1c(C(=O)N2CCOCC2)[nH]c2ccc(OCc3ccccc3)cc12,IC50,[14],> 100 µM (not active)
